Laboratory results published in ChEMBL document CHEMBL4507265 (2021).

Legend:
[1] = target: Serine/threonine-protein kinase WNK2 (Homo sapiens) (UniProt Q9Y3S1); settings: Compound concentration 1000.0 nM
[2] = system: Epidermal growth factor receptor (Homo sapiens), P00533 [L858R]; settings: Compound concentration 1000.0 nM
[3] = target: Serine/threonine-protein kinase Chk1 (Homo sapiens) (UniProt O14757); settings: Compound concentration 1000.0 nM
[4] = target: Atypical kinase COQ8A, mitochondrial (Homo sapiens) (UniProt Q8NI60); settings: Compound concentration 1000.0 nM
[5] = target: Receptor tyrosine-protein kinase erbB-4 (Homo sapiens) (UniProt Q15303); settings: Compound concentration 1000.0 nM
[6] = target: Serine/threonine-protein kinase Sgk1 (Homo sapiens) (UniProt O00141); settings: Compound concentration 1000.0 nM
[7] = system: Receptor-type tyrosine-protein kinase FLT3 (Homo sapiens), P36888 [UNDEFINED MUTATION]; settings: Compound concentration 1000.0 nM
[8] = target: Cyclin-dependent kinase 16 (Homo sapiens) (UniProt Q00536); settings: Compound concentration 1000.0 nM
[9] = target: Rhodopsin kinase GRK1 (Homo sapiens) (UniProt Q15835); settings: Compound concentration 1000.0 nM
[10] = target: Serine/threonine-protein kinase MRCK beta (Homo sapiens) (UniProt Q9Y5S2); settings: Compound concentration 1000.0 nM
[11] = target: Peripheral plasma membrane protein CASK (Homo sapiens) (UniProt O14936); settings: Compound concentration 1000.0 nM
[12] = target: Beta-1 adrenergic receptor (Homo sapiens) (UniProt P08588); settings: Compound concentration 10.0 uM
[13] = target: Serine/threonine-protein kinase mTOR (Homo sapiens) (UniProt P42345); settings: Compound concentration 1000.0 nM
[14] = target: Casein kinase I isoform alpha (Homo sapiens) (UniProt P48729); settings: Compound concentration 1000.0 nM
[15] = target: Serine/threonine-protein kinase SIK2 (Homo sapiens) (UniProt Q9H0K1); settings: Compound concentration 1000.0 nM
[16] = target: SRSF protein kinase 1 (Homo sapiens) (UniProt Q96SB4); settings: Compound concentration 1000.0 nM
[17] = target: Bone morphogenetic protein receptor type-1A (Homo sapiens) (UniProt P36894); settings: Compound concentration 1000.0 nM
[18] = target: Casein kinase I isoform gamma-3 (Homo sapiens) (UniProt Q9Y6M4); settings: Compound concentration 1000.0 nM
[19] = target: Serine/threonine-protein kinase Nek3 (Homo sapiens) (UniProt P51956); settings: Compound concentration 1000.0 nM
[20] = target: Serine/threonine-protein kinase MAK (Homo sapiens) (UniProt P20794); settings: Compound concentration 1000.0 nM
[21] = target: Mitogen-activated protein kinase 10 (Homo sapiens) (UniProt P53779); settings: Compound concentration 1000.0 nM
[22] = target: Serine/threonine-protein kinase Nek4 (Homo sapiens) (UniProt P51957); settings: Compound concentration 1000.0 nM
[23] = target: Mitogen-activated protein kinase kinase kinase 12 (Homo sapiens) (UniProt Q12852); settings: Compound concentration 1000.0 nM
[24] = target: Cyclin-dependent kinase-like 3 (Homo sapiens) (UniProt Q8IVW4); settings: Compound concentration 1000.0 nM
[25] = target: Serine/threonine-protein kinase pim-1 (Homo sapiens) (UniProt P11309); settings: Compound concentration 1000.0 nM
[26] = system: Phosphatidylinositol 4,5-bisphosphate 3-kinase catalytic subunit alpha isoform (Homo sapiens), P42336 [H1047Y]; settings: Compound concentration 1000.0 nM
[27] = target: Mitogen-activated protein kinase kinase kinase 1 (Homo sapiens) (UniProt Q13233); settings: Compound concentration 1000.0 nM
[28] = target: Rho-associated protein kinase 2 (Homo sapiens) (UniProt O75116); settings: Compound concentration 1000.0 nM
[29] = system: Receptor-type tyrosine-protein kinase FLT3 (Homo sapiens), P36888 [D835Y]; settings: Compound concentration 1000.0 nM
[30] = target: Ephrin type-A receptor 1 (Homo sapiens) (UniProt P21709); settings: Compound concentration 1000.0 nM
[31] = target: Serine/threonine-protein kinase 24 (Homo sapiens) (UniProt Q9Y6E0); settings: Compound concentration 1000.0 nM
[32] = target: Serine/threonine-protein kinase N1 (Homo sapiens) (UniProt Q16512); settings: Compound concentration 1000.0 nM
[33] = target: Serine/threonine-protein kinase 33 (Homo sapiens) (UniProt Q9BYT3); settings: Compound concentration 1000.0 nM
[34] = target: Mitogen-activated protein kinase kinase kinase 5 (Homo sapiens) (UniProt Q99683); settings: Compound concentration 1000.0 nM
[35] = target: Protein kinase C theta type (Homo sapiens) (UniProt Q04759); settings: Compound concentration 1000.0 nM
[36] = target: Serine/threonine-protein kinase Nek7 (Homo sapiens) (UniProt Q8TDX7); settings: Compound concentration 1000.0 nM
[37] = target: RAF proto-oncogene serine/threonine-protein kinase (Homo sapiens) (UniProt P04049); settings: Compound concentration 1000.0 nM
[38] = target: Mitogen-activated protein kinase kinase kinase 3 (Homo sapiens) (UniProt Q99759); settings: Compound concentration 1000.0 nM
[39] = target: D(1B) dopamine receptor (Homo sapiens) (UniProt P21918); settings: Compound concentration 10.0 uM
[40] = target: Serine/threonine-protein kinase DCLK1 (Homo sapiens) (UniProt O15075); settings: Compound concentration 1000.0 nM
[41] = target: Receptor-type tyrosine-protein kinase FLT3 (Homo sapiens) (UniProt P36888); settings: Compound concentration 1000.0 nM
[42] = system: Leucine-rich repeat serine/threonine-protein kinase 2 (Homo sapiens), Q5S007 [G2019S]; settings: Compound concentration 1000.0 nM
[43] = target: Serine/threonine-protein kinase WNK1 (Homo sapiens) (UniProt Q9H4A3); settings: Compound concentration 1000.0 nM
[44] = target: Aurora kinase C (Homo sapiens) (UniProt Q9UQB9); settings: Compound concentration 1000.0 nM
[45] = target: BDNF/NT-3 growth factors receptor (Homo sapiens) (UniProt Q16620); settings: Compound concentration 1000.0 nM

Chain of Cyclin-dependent kinase 16 (Homo sapiens) (Q00536 whole entry): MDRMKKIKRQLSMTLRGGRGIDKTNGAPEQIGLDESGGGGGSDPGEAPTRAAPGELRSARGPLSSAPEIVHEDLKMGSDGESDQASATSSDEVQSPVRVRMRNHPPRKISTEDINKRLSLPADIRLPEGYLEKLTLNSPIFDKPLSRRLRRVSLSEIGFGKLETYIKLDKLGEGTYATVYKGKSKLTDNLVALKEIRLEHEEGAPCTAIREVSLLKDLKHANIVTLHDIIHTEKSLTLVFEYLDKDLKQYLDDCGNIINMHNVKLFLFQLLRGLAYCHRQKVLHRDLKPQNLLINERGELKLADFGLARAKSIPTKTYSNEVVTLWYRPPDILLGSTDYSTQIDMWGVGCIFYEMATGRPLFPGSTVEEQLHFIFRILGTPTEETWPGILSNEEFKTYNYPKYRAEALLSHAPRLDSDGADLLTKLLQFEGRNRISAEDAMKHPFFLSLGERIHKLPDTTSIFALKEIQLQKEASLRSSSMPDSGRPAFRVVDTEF
Chain of Serine/threonine-protein kinase Chk1 (Homo sapiens) (O14757 whole entry): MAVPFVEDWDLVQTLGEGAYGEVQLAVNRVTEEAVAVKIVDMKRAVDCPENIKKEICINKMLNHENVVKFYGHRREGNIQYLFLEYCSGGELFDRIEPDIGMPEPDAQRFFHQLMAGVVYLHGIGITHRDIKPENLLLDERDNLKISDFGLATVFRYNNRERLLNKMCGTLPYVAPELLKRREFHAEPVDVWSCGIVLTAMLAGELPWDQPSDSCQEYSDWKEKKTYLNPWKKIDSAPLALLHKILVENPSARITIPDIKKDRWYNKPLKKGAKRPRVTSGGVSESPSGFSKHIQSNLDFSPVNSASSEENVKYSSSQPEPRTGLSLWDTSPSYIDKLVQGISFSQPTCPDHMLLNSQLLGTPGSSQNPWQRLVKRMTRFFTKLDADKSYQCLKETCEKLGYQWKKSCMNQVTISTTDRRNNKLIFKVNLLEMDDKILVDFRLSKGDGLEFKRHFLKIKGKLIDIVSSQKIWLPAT
Chain of Serine/threonine-protein kinase DCLK1 (Homo sapiens) (O15075 whole entry): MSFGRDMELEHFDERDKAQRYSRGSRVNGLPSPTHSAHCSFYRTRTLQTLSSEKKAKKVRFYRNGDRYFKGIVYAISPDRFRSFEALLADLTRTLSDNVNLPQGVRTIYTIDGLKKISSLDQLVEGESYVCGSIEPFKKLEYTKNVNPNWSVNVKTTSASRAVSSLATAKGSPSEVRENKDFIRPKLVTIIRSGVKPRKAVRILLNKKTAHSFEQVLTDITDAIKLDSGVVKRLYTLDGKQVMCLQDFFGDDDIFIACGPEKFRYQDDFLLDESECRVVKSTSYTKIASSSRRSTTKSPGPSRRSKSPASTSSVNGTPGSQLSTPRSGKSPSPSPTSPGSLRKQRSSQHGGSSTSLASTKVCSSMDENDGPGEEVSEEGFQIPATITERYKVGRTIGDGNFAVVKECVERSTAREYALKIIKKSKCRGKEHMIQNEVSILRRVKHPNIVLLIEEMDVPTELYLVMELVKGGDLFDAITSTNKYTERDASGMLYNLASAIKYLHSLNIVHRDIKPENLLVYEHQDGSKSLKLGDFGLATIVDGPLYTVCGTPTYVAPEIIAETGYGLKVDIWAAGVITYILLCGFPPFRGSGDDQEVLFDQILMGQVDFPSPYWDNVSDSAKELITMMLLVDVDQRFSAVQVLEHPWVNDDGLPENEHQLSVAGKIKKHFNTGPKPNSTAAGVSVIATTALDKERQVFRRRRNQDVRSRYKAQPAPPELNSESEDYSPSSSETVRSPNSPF
Chain of Receptor tyrosine-protein kinase erbB-4 (Homo sapiens) (Q15303 whole entry): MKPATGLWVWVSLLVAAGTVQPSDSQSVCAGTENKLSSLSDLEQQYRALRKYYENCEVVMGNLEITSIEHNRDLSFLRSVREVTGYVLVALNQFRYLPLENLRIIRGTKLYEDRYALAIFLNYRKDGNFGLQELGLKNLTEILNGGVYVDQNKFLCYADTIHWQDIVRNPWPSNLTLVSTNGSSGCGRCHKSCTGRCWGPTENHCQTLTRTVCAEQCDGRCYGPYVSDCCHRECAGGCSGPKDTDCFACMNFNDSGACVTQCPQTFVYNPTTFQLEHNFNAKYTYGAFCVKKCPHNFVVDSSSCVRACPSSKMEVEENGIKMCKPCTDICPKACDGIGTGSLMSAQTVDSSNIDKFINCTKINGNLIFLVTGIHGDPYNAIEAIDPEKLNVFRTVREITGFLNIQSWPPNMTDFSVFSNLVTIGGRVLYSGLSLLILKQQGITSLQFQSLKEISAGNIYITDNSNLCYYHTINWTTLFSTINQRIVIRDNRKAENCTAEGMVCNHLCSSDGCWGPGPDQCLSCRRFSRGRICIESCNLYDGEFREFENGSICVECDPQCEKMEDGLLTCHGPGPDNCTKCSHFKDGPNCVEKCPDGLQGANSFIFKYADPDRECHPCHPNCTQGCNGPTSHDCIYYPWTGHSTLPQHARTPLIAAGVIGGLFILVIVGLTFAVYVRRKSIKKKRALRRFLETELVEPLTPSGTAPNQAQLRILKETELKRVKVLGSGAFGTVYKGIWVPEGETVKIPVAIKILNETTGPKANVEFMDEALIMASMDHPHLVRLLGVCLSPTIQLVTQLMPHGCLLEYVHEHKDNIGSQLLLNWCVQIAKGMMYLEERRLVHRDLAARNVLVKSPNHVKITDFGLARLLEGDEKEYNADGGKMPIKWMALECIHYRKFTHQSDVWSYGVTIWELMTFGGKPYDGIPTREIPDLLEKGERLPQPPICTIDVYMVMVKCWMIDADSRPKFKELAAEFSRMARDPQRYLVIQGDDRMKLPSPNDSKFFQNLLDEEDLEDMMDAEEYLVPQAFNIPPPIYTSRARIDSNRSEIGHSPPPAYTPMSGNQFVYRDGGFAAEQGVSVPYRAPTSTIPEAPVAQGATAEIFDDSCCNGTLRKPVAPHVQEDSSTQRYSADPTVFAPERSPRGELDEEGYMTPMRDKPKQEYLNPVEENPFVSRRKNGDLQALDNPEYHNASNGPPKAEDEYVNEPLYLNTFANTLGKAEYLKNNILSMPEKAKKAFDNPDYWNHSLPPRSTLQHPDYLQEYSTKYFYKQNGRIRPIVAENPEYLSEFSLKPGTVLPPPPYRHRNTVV
Chain of Serine/threonine-protein kinase N1 (Homo sapiens) (Q16512 2-942 limits assumed): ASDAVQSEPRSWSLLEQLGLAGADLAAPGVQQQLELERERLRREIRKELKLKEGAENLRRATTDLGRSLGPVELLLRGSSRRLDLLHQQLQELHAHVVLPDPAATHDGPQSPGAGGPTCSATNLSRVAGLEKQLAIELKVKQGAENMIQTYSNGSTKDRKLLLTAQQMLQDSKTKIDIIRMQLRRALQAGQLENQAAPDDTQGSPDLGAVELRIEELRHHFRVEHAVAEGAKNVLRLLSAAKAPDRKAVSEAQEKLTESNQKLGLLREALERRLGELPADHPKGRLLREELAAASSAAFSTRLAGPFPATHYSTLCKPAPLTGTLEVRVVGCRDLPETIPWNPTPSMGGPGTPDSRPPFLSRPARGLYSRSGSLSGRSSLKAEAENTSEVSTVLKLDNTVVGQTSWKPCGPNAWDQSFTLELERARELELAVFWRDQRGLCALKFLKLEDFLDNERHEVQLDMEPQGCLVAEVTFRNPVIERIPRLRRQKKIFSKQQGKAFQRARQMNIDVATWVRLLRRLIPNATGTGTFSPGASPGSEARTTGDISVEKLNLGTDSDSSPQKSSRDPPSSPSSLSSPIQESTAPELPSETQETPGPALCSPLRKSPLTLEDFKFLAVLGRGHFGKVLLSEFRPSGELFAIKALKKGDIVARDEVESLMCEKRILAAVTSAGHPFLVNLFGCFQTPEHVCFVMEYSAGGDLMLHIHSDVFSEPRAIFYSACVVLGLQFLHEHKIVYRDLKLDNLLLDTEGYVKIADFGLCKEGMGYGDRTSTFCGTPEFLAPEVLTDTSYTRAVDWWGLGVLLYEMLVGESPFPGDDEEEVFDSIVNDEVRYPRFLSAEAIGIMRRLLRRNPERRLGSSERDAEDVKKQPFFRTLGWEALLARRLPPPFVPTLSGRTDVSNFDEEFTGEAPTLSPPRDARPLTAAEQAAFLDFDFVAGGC
Chain of Peripheral plasma membrane protein CASK (Homo sapiens) (O14936 whole entry): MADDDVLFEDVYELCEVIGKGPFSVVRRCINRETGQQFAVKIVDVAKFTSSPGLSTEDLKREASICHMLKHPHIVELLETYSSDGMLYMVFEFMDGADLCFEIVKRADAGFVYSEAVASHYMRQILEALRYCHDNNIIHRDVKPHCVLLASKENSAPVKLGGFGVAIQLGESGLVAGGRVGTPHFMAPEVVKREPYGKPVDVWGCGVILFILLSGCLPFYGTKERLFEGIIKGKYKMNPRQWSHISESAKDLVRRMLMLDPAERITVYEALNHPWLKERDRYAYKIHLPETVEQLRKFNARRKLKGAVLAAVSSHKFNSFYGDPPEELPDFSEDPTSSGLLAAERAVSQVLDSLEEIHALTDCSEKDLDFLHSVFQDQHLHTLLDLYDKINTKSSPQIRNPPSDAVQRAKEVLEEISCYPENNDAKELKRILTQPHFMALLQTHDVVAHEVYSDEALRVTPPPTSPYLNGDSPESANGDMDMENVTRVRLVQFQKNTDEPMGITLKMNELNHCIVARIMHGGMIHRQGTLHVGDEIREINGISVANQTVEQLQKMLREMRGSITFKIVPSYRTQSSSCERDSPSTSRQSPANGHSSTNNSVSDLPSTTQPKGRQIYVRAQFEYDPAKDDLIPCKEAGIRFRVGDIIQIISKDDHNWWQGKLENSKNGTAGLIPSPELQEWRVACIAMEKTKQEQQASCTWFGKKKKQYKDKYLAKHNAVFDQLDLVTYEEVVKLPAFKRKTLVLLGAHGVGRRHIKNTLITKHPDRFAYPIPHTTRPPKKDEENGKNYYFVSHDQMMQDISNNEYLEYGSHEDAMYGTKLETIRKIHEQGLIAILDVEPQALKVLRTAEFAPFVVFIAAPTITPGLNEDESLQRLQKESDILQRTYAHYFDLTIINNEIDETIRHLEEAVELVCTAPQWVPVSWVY

## NS(=O)(=O)c1cc(NC(=O)C2(c3ccccc3Cl)CC2)ccc1Oc1cccc(Cl)c1 [BAY-207]
[1]
  residual activity: 88%
[2]
  residual activity: 79%
[3]
  residual activity: 80%
[4]
  residual activity: 100%
[5]
  residual activity: 75%
[6]
  residual activity: 100%
[7]
  residual activity: 100%
[8]
  residual activity: 100%
[9]
  residual activity: 72%
[10]
  residual activity: 62%
[11]
  residual activity: 89%
[12]
  inhibition: -3.09%
[13]
  residual activity: 100%
[14]
  residual activity: 100%
[15]
  residual activity: 100%
[16]
  residual activity: 71%
[17]
  residual activity: 90%
[18]
  residual activity: 100%
[19]
  residual activity: 95%
[20]
  residual activity: 89%
[21]
  residual activity: 100%
[22]
  residual activity: 100%
[23]
  residual activity: 100%
[24]
  residual activity: 77%
[25]
  residual activity: 94%
[26]
  residual activity: 76%
[27]
  residual activity: 100%
[28]
  residual activity: 100%
[29]
  residual activity: 100%
[30]
  residual activity: 100%
[31]
  residual activity: 93%
[32]
  residual activity: 100%
[33]
  residual activity: 100%
[34]
  residual activity: 88%
[35]
  residual activity: 88%
[36]
  residual activity: 90%
[37]
  residual activity: 81%
[38]
  residual activity: 100%
[39]
  inhibition: 20.8%
[40]
  residual activity: 68%
[41]
  residual activity: 70%
[42]
  residual activity: 100%
[43]
  residual activity: 88%
[44]
  residual activity: 63%
[45]
  residual activity: 100%

## NS(=O)(=O)c1cc(NC(=O)Cc2ccccc2)ccc1Oc1cccc(Cl)c1 [BAY-1797]
[1]
  residual activity: 0%
[2]
  residual activity: 85%
[3]
  residual activity: 99%
[4]
  residual activity: 94%
[5]
  residual activity: 56%
[6]
  residual activity: 87%
[7]
  residual activity: 53%
[8]
  residual activity: 92%
[9]
  residual activity: 83%
[10]
  residual activity: 100%
[11]
  residual activity: 86%
[12]
  inhibition: 14.3%
[13]
  residual activity: 92%
[14]
  residual activity: 93%
[15]
  residual activity: 100%
[16]
  residual activity: 62%
[17]
  residual activity: 69%
[18]
  residual activity: 74%
[19]
  residual activity: 100%
[20]
  residual activity: 100%
[21]
  residual activity: 89%
[22]
  residual activity: 98%
[23]
  residual activity: 80%
[24]
  residual activity: 95%
[25]
  residual activity: 89%
[26]
  residual activity: 81%
[27]
  residual activity: 66%
[28]
  residual activity: 98%
[29]
  residual activity: 95%
[30]
  residual activity: 100%
[31]
  residual activity: 82%
[32]
  residual activity: 100%
[33]
  residual activity: 100%
[34]
  residual activity: 100%
[35]
  residual activity: 74%
[36]
  residual activity: 86%
[37]
  residual activity: 100%
[38]
  residual activity: 71%
[39]
  inhibition: 27.7%
[40]
  residual activity: 86%
[41]
  residual activity: 90%
[42]
  residual activity: 100%
[43]
  residual activity: 89%
[44]
  residual activity: 100%
[45]
  residual activity: 66%
